Test results as given in PubChem BioAssay (NCI).
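Grown in 96-well plates, cells were treated for 48 hours with each compound at five concentrations. Insufficient inhibition: endpoint recorded as highest concentration tested. Here, GI50 denotes the concentration required for 50% inhibition of growth. TGI marks complete inhibition of growth.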

Tests used:
Assay in all cases: growth of human tumour cells (NCI), 48 h
HT29 colon = test system: HT29 colon
HCC-2998 colon = test system: HCC-2998 colon
PC-3 prostate = test system: PC-3 prostate
A498 renal = test system: A498 renal
DU-145 prostate = test system: DU-145 prostate
MDA-N = test system: MDA-N
SN12C renal = test system: SN12C renal
HCT-15 colon = test system: HCT-15 colon
M14 melanoma = test system: M14 melanoma
KM12 colon = test system: KM12 colon
OVCAR-3 ovarian = test system: OVCAR-3 ovarian
U251 CNS = test system: U251 CNS
HOP-62 NSCLC = test system: HOP-62 NSCLC
COLO 205 colon = test system: COLO 205 colon
IGROV1 ovarian = test system: IGROV1 ovarian
TK-10 renal = test system: TK-10 renal
786-0 renal = test system: 786-0 renal
SK-MEL-28 melanoma = test system: SK-MEL-28 melanoma
K-562 leukemia = test system: K-562 leukemia
MCF7 breast = test system: MCF7 breast
MALME-3M melanoma = test system: MALME-3M melanoma
BT-549 breast = test system: BT-549 breast
NCI-H23 lung = test system: NCI-H23 lung
MOLT-4 leukemia = test system: MOLT-4 leukemia
RPMI-8226 leukemia = test system: RPMI-8226 leukemia
SR leukemia = test system: SR leukemia
A549 NSCLC = test system: A549 NSCLC
CCRF-CEM leukemia = test system: CCRF-CEM leukemia
RXF 393 renal = test system: RXF 393 renal
SK-MEL-2 melanoma = test system: SK-MEL-2 melanoma
ACHN renal = test system: ACHN renal
SK-OV-3 ovarian = test system: SK-OV-3 ovarian
SF-268 CNS = test system: SF-268 CNS
SK-MEL-5 melanoma = test system: SK-MEL-5 melanoma
SW-620 colon = test system: SW-620 colon
SF-539 CNS = test system: SF-539 CNS
OVCAR-5 ovarian = test system: OVCAR-5 ovarian
MDA-MB-435 = test system: MDA-MB-435
HCT-116 colon = test system: HCT-116 colon
EKVX NSCLC = test system: EKVX NSCLC
UACC-257 melanoma = test system: UACC-257 melanoma
HS 578T breast = test system: HS 578T breast
HL-60(TB) leukemia = test system: HL-60(TB) leukemia
OVCAR-8 ovarian = test system: OVCAR-8 ovarian
OVCAR-4 ovarian = test system: OVCAR-4 ovarian
SNB-75 CNS = test system: SNB-75 CNS
NCI-H460 lung = test system: NCI-H460 lung
HOP-92 NSCLC = test system: HOP-92 NSCLC
UO-31 renal = test system: UO-31 renal
CAKI-1 renal = test system: CAKI-1 renal
NCI-H226 lung = test system: NCI-H226 lung
T-47D breast = test system: T-47D breast
UACC-62 melanoma = test system: UACC-62 melanoma
NCI-H522 lung = test system: NCI-H522 lung
SNB-19 CNS = test system: SNB-19 CNS
NCI/ADR-RES ovarian = test system: NCI/ADR-RES ovarian
LOX IMVI melanoma = test system: LOX IMVI melanoma
MDA-MB-231 breast = test system: MDA-MB-231 breast
SF-295 CNS = test system: SF-295 CNS

SMILES: COc1ccc2c(ccc3c(C(=O)NCCN(C)CCNC(=O)c4cn(C)c5c4ccc4cc(OC)ccc45)cn(C)c32)c1
- TGI (HT29 colon): 2.7 µM
- TGI (HCC-2998 colon): 2.79 µM
- TGI (PC-3 prostate): 2.84 µM
- TGI (A498 renal): > 100 µM
- TGI (DU-145 prostate): 3.32 µM
- TGI (MDA-N): 2.91 µM
- TGI (SN12C renal): 2.82 µM
- TGI (HCT-15 colon): 2.52 µM
- TGI (M14 melanoma): 3 µM
- TGI (KM12 colon): 3.02 µM
- TGI (OVCAR-3 ovarian): 2.83 µM
- TGI (U251 CNS): > 100 µM
- TGI (HOP-62 NSCLC): 2.75 µM

SMILES: Cc1nn(CCO)c(C)c1N=[N+]([O-])c1c(C)nn(CCO)c1C
- GI50 (HT29 colon): 3.59 µM
- TGI (HT29 colon): 13.7 µM
- GI50 (COLO 205 colon): 0.296 µM
- TGI (COLO 205 colon): 0.802 µM
- GI50 (IGROV1 ovarian): 4.8 µM
- TGI (IGROV1 ovarian): 21.8 µM
- GI50 (TK-10 renal): 1.64 µM
- TGI (TK-10 renal): 3.43 µM
- GI50 (HCC-2998 colon): 13.7 µM
- TGI (HCC-2998 colon): 27.2 µM
- GI50 (PC-3 prostate): 4.99 µM
- TGI (PC-3 prostate): 20.9 µM
- GI50 (786-0 renal): 10.1 µM
- TGI (786-0 renal): 41.5 µM
- GI50 (A498 renal): 15.9 µM
- TGI (A498 renal): 29.8 µM
- GI50 (DU-145 prostate): 2.92 µM
- TGI (DU-145 prostate): 7.88 µM
- GI50 (SK-MEL-28 melanoma): 2.84 µM
- TGI (SK-MEL-28 melanoma): 7.19 µM
- GI50 (K-562 leukemia): 2.19 µM
- TGI (K-562 leukemia): 7.13 µM
- GI50 (MCF7 breast): 2.64 µM
- TGI (MCF7 breast): 8.36 µM
- GI50 (MALME-3M melanoma): 0.723 µM
- TGI (MALME-3M melanoma): 2.4 µM
- GI50 (BT-549 breast): 2.13 µM
- TGI (BT-549 breast): 6.48 µM
- GI50 (NCI-H23 lung): 4.95 µM
- TGI (NCI-H23 lung): 10.6 µM
- GI50 (MOLT-4 leukemia): 8.47 µM
- TGI (MOLT-4 leukemia): 33.3 µM
- GI50 (RPMI-8226 leukemia): 3.64 µM
- TGI (RPMI-8226 leukemia): 14.8 µM
- GI50 (SR leukemia): 1.8 µM
- TGI (SR leukemia): 6.86 µM
- GI50 (SN12C renal): 6.3 µM
- TGI (SN12C renal): 23 µM
- GI50 (A549 NSCLC): 14.8 µM
- TGI (A549 NSCLC): 36.2 µM
- GI50 (CCRF-CEM leukemia): 3.53 µM
- TGI (CCRF-CEM leukemia): 33.5 µM
- GI50 (HCT-15 colon): 2.4 µM
- TGI (HCT-15 colon): 6.5 µM
- GI50 (RXF 393 renal): 1.74 µM
- TGI (RXF 393 renal): 3.73 µM
- GI50 (SK-MEL-2 melanoma): 5.79 µM
- TGI (SK-MEL-2 melanoma): 40.9 µM
- GI50 (ACHN renal): 1.36 µM
- TGI (ACHN renal): 2.91 µM
- GI50 (SK-OV-3 ovarian): 16.3 µM
- TGI (SK-OV-3 ovarian): 30.5 µM
- GI50 (SF-268 CNS): 15.6 µM
- TGI (SF-268 CNS): 31.2 µM
- GI50 (SK-MEL-5 melanoma): 11 µM
- TGI (SK-MEL-5 melanoma): 23.3 µM
- GI50 (SW-620 colon): 1.45 µM
- TGI (SW-620 colon): 3.09 µM
- GI50 (SF-539 CNS): 2.13 µM
- TGI (SF-539 CNS): 5.51 µM
- GI50 (OVCAR-5 ovarian): 11.3 µM
- TGI (OVCAR-5 ovarian): 24.2 µM
- GI50 (MDA-MB-435): 1.59 µM
- TGI (MDA-MB-435): 3.53 µM
- GI50 (HCT-116 colon): 2.12 µM
- GI50 (M14 melanoma): 1.88 µM
- TGI (M14 melanoma): > 19.7 µM
- GI50 (KM12 colon): 12.6 µM
- TGI (KM12 colon): 26 µM
- GI50 (EKVX NSCLC): 5.62 µM
- TGI (EKVX NSCLC): 20.6 µM
- GI50 (UACC-257 melanoma): 1.69 µM
- TGI (UACC-257 melanoma): 3.5 µM
- GI50 (HS 578T breast): 17.6 µM
- TGI (HS 578T breast): 53.1 µM
- GI50 (HL-60(TB) leukemia): 2.5 µM
- TGI (HL-60(TB) leukemia): 9.3 µM
- GI50 (OVCAR-8 ovarian): 2.19 µM
- TGI (OVCAR-8 ovarian): 4.54 µM
- GI50 (OVCAR-3 ovarian): 1.92 µM
- TGI (OVCAR-3 ovarian): 3.65 µM
- GI50 (OVCAR-4 ovarian): 5.88 µM
- TGI (OVCAR-4 ovarian): 15.8 µM
- GI50 (SNB-75 CNS): 13.1 µM
- TGI (SNB-75 CNS): 25.9 µM
- GI50 (NCI-H460 lung): 17.8 µM
- TGI (NCI-H460 lung): 37.8 µM
- GI50 (HOP-92 NSCLC): 1.83 µM
- TGI (HOP-92 NSCLC): 7.19 µM
- GI50 (U251 CNS): 7.42 µM
- TGI (U251 CNS): 20.6 µM
- GI50 (UO-31 renal): 0.754 µM
- TGI (UO-31 renal): 2.15 µM
- GI50 (CAKI-1 renal): 1.51 µM
- TGI (CAKI-1 renal): 3.33 µM
- GI50 (NCI-H226 lung): 16.1 µM
- TGI (NCI-H226 lung): 37 µM
- GI50 (T-47D breast): 1.7 µM
- TGI (T-47D breast): 4.51 µM
- GI50 (UACC-62 melanoma): 8.48 µM
- TGI (UACC-62 melanoma): 22.2 µM
- GI50 (HOP-62 NSCLC): 20.4 µM
- TGI (HOP-62 NSCLC): > 57.9 µM
- GI50 (NCI-H522 lung): 1.03 µM
- TGI (NCI-H522 lung): 2.88 µM
- GI50 (SNB-19 CNS): 16.6 µM
- TGI (SNB-19 CNS): 32.1 µM
- GI50 (NCI/ADR-RES ovarian): 11.8 µM
- TGI (NCI/ADR-RES ovarian): 39 µM
- GI50 (LOX IMVI melanoma): 3 µM
- TGI (LOX IMVI melanoma): 7.69 µM
- GI50 (MDA-MB-231 breast): 13.5 µM
- TGI (MDA-MB-231 breast): 28.8 µM
- GI50 (SF-295 CNS): 15.3 µM
- TGI (SF-295 CNS): 30 µM
